Experimental data from US9676714B2, “Sulfonylindole derivatives and method for preparing the same” (Daewoong Pharmaceutical Co., Ltd., priority 2013, dated 2017).
Structures can show the parent of a compound that is named as a salt.

molecular target: T1, proton pump (H+/K+-ATPase) (Sus scrofa, UniProt P19156); experiment: Measurement of inhibitory effects on proton pump (H+/K+-ATPase) activities; assay type: biochemical; conditions: hog gastric vesicles, K+-specific H+/K+-ATPase activity, Tris-HCl buffer pH 7.4, 37° C. for 40 minutes, malachite green Pi readout
T1 construct: Gastric vesicles were prepared from hog stomach via centrifugal separation; from tissue; host or cells: hog stomach (gastric vesicles, method of Rabon et al. 1988)
T1 sequence (P19156 whole entry): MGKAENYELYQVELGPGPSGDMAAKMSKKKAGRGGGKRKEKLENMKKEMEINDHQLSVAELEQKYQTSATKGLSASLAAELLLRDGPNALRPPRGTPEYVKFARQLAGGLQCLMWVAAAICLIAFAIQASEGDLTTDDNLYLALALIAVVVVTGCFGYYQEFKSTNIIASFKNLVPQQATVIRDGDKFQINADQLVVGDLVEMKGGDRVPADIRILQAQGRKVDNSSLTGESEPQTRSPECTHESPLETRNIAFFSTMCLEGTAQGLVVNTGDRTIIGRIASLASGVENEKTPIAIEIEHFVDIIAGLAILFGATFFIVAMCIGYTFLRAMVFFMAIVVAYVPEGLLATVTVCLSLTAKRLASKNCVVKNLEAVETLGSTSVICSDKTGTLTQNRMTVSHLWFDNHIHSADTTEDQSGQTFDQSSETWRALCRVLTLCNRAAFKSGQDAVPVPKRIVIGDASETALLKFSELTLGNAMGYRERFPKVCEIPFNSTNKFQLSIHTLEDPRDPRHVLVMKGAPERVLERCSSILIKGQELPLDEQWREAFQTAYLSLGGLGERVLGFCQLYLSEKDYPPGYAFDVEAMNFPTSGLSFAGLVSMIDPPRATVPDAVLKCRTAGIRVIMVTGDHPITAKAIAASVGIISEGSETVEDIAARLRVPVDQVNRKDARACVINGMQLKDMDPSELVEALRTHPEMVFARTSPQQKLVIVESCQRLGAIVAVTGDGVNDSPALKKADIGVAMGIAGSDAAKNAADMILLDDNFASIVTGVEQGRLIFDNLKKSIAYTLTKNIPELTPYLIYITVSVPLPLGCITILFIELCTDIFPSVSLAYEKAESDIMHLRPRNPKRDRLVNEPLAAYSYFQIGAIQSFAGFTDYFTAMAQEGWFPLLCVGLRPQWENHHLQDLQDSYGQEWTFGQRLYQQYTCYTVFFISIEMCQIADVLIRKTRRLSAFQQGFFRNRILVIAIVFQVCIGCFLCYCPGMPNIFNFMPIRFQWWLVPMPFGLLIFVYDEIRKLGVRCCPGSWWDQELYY
T1 sequence (P18434 whole entry partner): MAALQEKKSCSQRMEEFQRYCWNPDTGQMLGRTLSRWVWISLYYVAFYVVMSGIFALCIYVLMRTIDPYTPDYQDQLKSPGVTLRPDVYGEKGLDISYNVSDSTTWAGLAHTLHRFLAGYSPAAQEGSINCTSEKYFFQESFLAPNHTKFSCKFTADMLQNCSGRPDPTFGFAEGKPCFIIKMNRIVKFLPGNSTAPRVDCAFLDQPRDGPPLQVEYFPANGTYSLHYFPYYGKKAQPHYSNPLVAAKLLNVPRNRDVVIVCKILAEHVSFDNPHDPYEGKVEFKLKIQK
Summary of the method: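 Hog gastric vesicles in 60 mmol/l Tris-HCl pH 7.4 with 0.5% DMSO were treated with compounds at room temperature; reaction was started with 10 μl of 10 mmol/l ATP stock. Released Pi was read at 570 nm, K+-specific activity taken as the ±K+ difference. IC50 from 4-parameter logistic fit.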

IC50 [nM]	Structure (SMILES)
150	CNCc1cn(S(=O)(=O)c2cccc(OC(F)F)c2)c2cc(Nc3ccc(C)cc3Cl)ccc12 [Example 175, N-(2-chloro-4-methylphenyl)-1-((3-(difluoromethoxy)phenyl)sulfonyl)-3-((methylamino)methyl)-1H-indol-6-amine hydrochloride]
1000	CNCc1cn(S(=O)(=O)c2cccc(C(F)(F)F)c2)c2cc(Nc3ccc(Cl)cc3F)ccc12 [Example 185, N-(4-chloro-2-fluorophenyl)-3-((methylamino)methyl)-1-((3-(trifluoromethyl)phenyl)sulfonyl)-1H-indol-6-amine hydrochloride]
930	CNCc1cn(S(=O)(=O)c2cccnc2)c2cc(Nc3ccc(F)c(F)c3)ccc12 [Example 62, N-(3,4-difluorophenyl)-3-((methylamino)methyl)-1-(pyridin-3-ylsulfonyl)-1H-indol-6-amine hydrochloride]
160	CNCc1cn(S(=O)(=O)c2cccnc2)c2cc(Nc3cc(F)c(F)cc3C)ccc12 [Example 73, N-(4,5-difluoro-2-methylphenyl)-3-((methylamino)methyl)-1-(pyridin-3-ylsulfonyl)-1H-indol-6-amine hydrochloride]
360	CNCc1cn(S(=O)(=O)c2cccc(C(F)(F)F)c2)c2cc(Nc3ccc(C)cc3Cl)ccc12 [Example 184, N-(2-chloro-4-methylphenyl)-3-((methylamino)methyl)-1-((3-(trifluoromethyl)phenyl)sulfonyl)-1H-indol-6-amine hydrochloride]
550	CNCc1cn(S(=O)(=O)c2ccc(OC(F)(F)F)cc2)c2cc(Nc3ccc(C)cc3Cl)ccc12 [Example 207, N-(2-chloro-4-methylphenyl)-3-((methylamino)methyl)-1-((4-(trifluoromethoxy)phenyl)sulfonyl)-1H-indol-6-amine hydrochloride]
2150	CNCc1cn(S(=O)(=O)c2ccc(-c3ccccc3)cc2)c2cc(Nc3ccc(C)cc3F)ccc12 [Example 232, 1-([1,1′-biphenyl]-4-ylsulfonyl)-N-(2-fluoro-4-methylphenyl)-3-((methylamino)methyl)-1H-indol-6-amine hydrochloride]
350	CNCc1cn(S(=O)(=O)c2cncc(F)c2)c2cc(Nc3ccc(F)cc3C)cnc12 [Example 351, N-(4-fluoro-2-methylphenyl)-1-((5-fluoropyridin-3-yl)sulfonyl)-3-((methylamino)methyl)-1H-pyrrolo[3,2-b]pyridin-6-amine hydrochloride]
14200	CNCc1cn(S(=O)(=O)c2cccnc2)c2cc(-c3cnc(F)c(C)c3)ccc12 [Example 257, 1-(6-(6-fluoro-5-methylpyridin-3-yl)-1-(pyridin-3-ylsulfonyl)-1H-indol-3-yl)-N-methylmethanamine hydrochloride]
670	CNCc1cn(S(=O)(=O)c2cccnc2)c2cc(Nc3ccc4c(c3)OCCO4)ccc12 [Example 97, N-(2,3-dihydrobenzo[b][1,4]dioxin-6-yl)-3-((methylamino)methyl)-1-(pyridin-3-ylsulfonyl)-1H-indol-6-amine hydrochloride]
270	CNCc1cn(S(=O)(=O)c2ccc(OC)cc2)c2cc(Nc3ccc(C)cc3Cl)ccc12 [Example 219, N-(2-chloro-4-methylphenyl)-1-((4-methoxyphenyl)sulfonyl)-3-((methylamino)methyl)-1H-indol-6-amine hydrochloride]
1840	CNCc1cn(S(=O)(=O)c2cccnc2)c2cc(Nc3cc(Cl)cc(Cl)c3)ccc12 [Example 64, N-(3,5-dichlorophenyl)-3-((methylamino)methyl)-1-(pyridin-3-ylsulfonyl)-1H-indol-6-amine hydrochloride]

Continued, compound first:

Structure (SMILES)	IC50 [nM]
CNCc1cn(S(=O)(=O)c2ccccc2C)c2cc(Nc3ccc(C)cc3F)ccc12 [Example 223, N-(2-fluoro-4-methylphenyl)-3-((methylamino)methyl)-1-(o-tolylsulfonyl)-1H-indol-6-amine hydrochloride]	1290
CNCc1cn(S(=O)(=O)c2cccc3ccccc23)c2cc(Nc3ccc(C)cc3F)ccc12 [Example 233, N-(2-fluoro-4-methylphenyl)-3-((methylamino)methyl)-1-(naphthalen-1-ylsulfonyl)-1H-indol-6-amine hydrochloride]	2850
CNCc1cn(S(=O)(=O)c2cccnc2)c2cc(Nc3c(C)cccc3Cl)ccc12 [Example 61, N-(2-chloro-6-methylphenyl)-3-((methylamino)methyl)-1-(pyridin-3-ylsulfonyl)-1H-indol-6-amine hydrochloride]	290
CNCc1cn(S(=O)(=O)c2cccnc2)c2cc(Nc3cccc(F)c3)ccc12 [Example 6, N-(3-fluorophenyl)-3-((methylamino)methyl)-1-(pyridin-3-ylsulfonyl)-1H-indol-6-amine hydrochloride]	1180
CNCc1cn(S(=O)(=O)c2cccnc2)c2cc(N3CCCc4cc(C)ccc43)ccc12 [Example 260, N-methyl-1-(6-(6-methyl-3,4-dihydroquinolin-1(2H)-yl)-1-(pyridin-3-ylsulfonyl)-1H-indol-3-yl)methanamine hydrochloride]	380
CNCc1cn(S(=O)(=O)c2cccnc2)c2cc(Cc3ccccc3F)ccc12 [Example 269, 1-(6-(2-fluorobenzyl)-1-(pyridin-3-ylsulfonyl)-1H-indol-3-yl)-N-methylmethanamine hydrochloride]	770
CNCc1cn(S(=O)(=O)c2cccc(OC(F)(F)F)c2)c2cc(Nc3ccc(OC(F)(F)F)cc3OC)ccc12 [Example 202, N-(2-methoxy-4-(trifluoromethoxy)phenyl)-3-((methylamino)methyl)-1-((3-(trifluoromethoxy)phenyl)sulfonyl)-1H-indol-6-amine hydrochloride]	580
CNCc1cn(S(=O)(=O)c2cccnc2)c2cc(Nc3cc(Cl)c(Cl)cc3Cl)ccc12 [Example 76, 3-((methylamino)methyl)-1-(pyridin-3-ylsulfonyl)-N-(2,4,5-trichlorophenyl)-1H-indol-6-amine hydrochloride]	350
CNCc1cn(S(=O)(=O)c2cccc(Cl)c2)c2cc(Nc3ccc(C(F)(F)F)nc3Cl)ccc12 [Example 161, N-(2-chloro-6-(trifluoromethyl)pyridin-3-yl)-1-((3-chlorophenyl)sulfonyl)-3-((methylamino)methyl)-1H-indol-6-amine hydrochloride]	460
CNCc1cn(S(=O)(=O)c2cccnc2)c2cc(Nc3ccc(C)nc3C)ccc12 [Example 111, N-(2,6-dimethylpyridin-3-yl)-3-((methylamino)methyl)-1-(pyridin-3-ylsulfonyl)-1H-indol-6-amine hydrochloride]	3210
CNCc1cn(S(=O)(=O)c2cccnc2)c2cc(-c3ccc(C)cc3F)ccc12 [Example 252, 1-(6-(2-fluoro-4-methylphenyl)-1-(pyridin-3-ylsulfonyl)-1H-indol-3-yl)-N-methylmethanamine hydrochloride]	1000
CNCc1cn(S(=O)(=O)c2cccnc2)c2cc(Nc3ccccc3)ccc12 [Example 2, 3-((methylamino)methyl)-N-phenyl-1-(pyridin-3-ylsulfonyl)-1H-indol-6-amine hydrochloride]	1150
CNCc1cn(S(=O)(=O)c2cccnc2)c2cc(Cc3ccc(Cl)nc3Cl)ccc12 [Example 285, 1-(6-((2,6-dichloropyridin-3-yl)methyl)-1-(pyridin-3-ylsulfonyl)-1H-indol-3-yl)-N-methylmethanamine hydrochloride]	650
CNCc1cn(S(=O)(=O)c2cccnc2)c2cc(Nc3ccc(OC)cc3C)ccc12 [Example 48, N-(4-methoxy-2-methylphenyl)-3-((methylamino)methyl)-1-(pyridin-3-ylsulfonyl)-1H-indol-6-amine hydrochloride]	260
COc1ccc(Nc2ccc3c(CN(C)C)cn(S(=O)(=O)c4cccc(C(F)(F)F)c4)c3c2)c(Cl)n1 [Example 319, N-(2-chloro-6-methoxypyridin-3-yl)-3-((dimethylamino)methyl)-1-((3-(trifluoromethyl)phenyl)sulfonyl)-1H-indol-6-amine]	1240
CNCc1cn(S(=O)(=O)c2cccnc2)c2cc(-c3ccc(OC)nc3)ccc12 [Example 248, 1-(6-(6-methoxypyridin-3-yl)-1-(pyridin-3-ylsulfonyl)-1H-indol-3-yl)-N-methylmethanamine]	20000
CNCc1cn(S(=O)(=O)c2ccccc2Cl)c2cc(Nc3ccc(C)cc3F)ccc12 [Example 225, 1-((2-chlorophenyl)sulfonyl)-N-(2-fluoro-4-methylphenyl)-3-((methylamino)methyl)-1H-indol-6-amine hydrochloride]	2060
CNCc1cn(S(=O)(=O)c2cccnc2)c2cc(Nc3ccccc3F)ccc12 [Example 3, N-(2-fluorophenyl)-3-((methylamino)methyl)-1-(pyridin-3-ylsulfonyl)-1H-indol-6-amine hydrochloride]	250
CNCc1cn(S(=O)(=O)c2cccnc2)c2cc(Nc3ccc(Br)cc3Cl)ccc12 [Example 44, N-(4-bromo-2-chlorophenyl)-3-((methylamino)methyl)-1-(pyridin-3-ylsulfonyl)-1H-indol-6-amine hydrochloride]	270
CNCc1cn(S(=O)(=O)c2cccc(OC)c2)c2cc(Nc3ccc(C)nc3F)ccc12 [Example 171, N-(2-fluoro-6-methylpyridin-3-yl)-1-((3-methoxyphenyl)sulfonyl)-3-((methylamino)methyl)-1H-indol-6-amine hydrochloride]	630
CNCc1cn(S(=O)(=O)c2ccc(OC(F)F)cc2)c2cc(-c3cncnc3)ccc12 [Example 265, 1-(1-((4-(difluoromethoxy)phenyl)sulfonyl)-6-(pyrimidin-5-yl)-1H-indol-3-yl)-N-methylmethanamine hydrochloride]	40000
